{
  "source": "patent US6818774B2",
  "about": "“Isoquinoline derivatives” (priority 2002, dated 2004)",
  "key": {"human MAO-B": {"biological_target": "T1, human MAO-B (Homo sapiens, UniProt P27338)", "T1 construct": "expressed in transfected cells; host or cells: EBNA cells (transient transfection); cell membranes used", "T1 sequence (P27338 1-520)": "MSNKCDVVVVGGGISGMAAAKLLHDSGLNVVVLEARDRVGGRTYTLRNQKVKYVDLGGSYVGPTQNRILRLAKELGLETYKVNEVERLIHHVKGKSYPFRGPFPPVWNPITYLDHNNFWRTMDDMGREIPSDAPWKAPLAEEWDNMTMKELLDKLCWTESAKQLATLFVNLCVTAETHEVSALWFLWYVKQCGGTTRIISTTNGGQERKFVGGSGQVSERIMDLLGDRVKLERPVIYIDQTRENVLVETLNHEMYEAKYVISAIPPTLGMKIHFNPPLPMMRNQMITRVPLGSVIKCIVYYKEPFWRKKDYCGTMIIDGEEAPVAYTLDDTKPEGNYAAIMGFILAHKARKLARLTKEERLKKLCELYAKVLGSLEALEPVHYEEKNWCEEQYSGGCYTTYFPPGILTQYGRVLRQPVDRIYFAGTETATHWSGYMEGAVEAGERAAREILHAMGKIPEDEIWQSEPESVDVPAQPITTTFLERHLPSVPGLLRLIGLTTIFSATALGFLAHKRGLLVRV", "experiment": "MAO-B enzymatic activity, spectrophotometric assay (tyramine, Amplex Red) on membranes of transfected EBNA cells", "format": "biochemical", "protocol": "The cDNA's encoding human MAO-A and MAO-B were transiently transfected into EBNA cells using the procedure described by E.-J. Schlaeger and K. Christensen (Transient Gene Expression in Mammalian Cells Grown in Serum-free Suspension Culture; Cytotechnology, 15: 1-13, 1998). After transfection, cells were homogenised by means of a Polytron homogenizer in 20 mM Tris HCl buffer, pH 8.0, containing 0.5 mM EGTA and 0.5 mM phenylmethanesulfonyl fluoride. Cell membranes were obtained by centrifugation at 45,000×g and, after two rinsing step with 20 mM Tris HCl buffer, pH 8.0, containing 0.5 mM EGTA, membranes were eventually re-suspended in the above buffer and aliquots stored at −80° C. until use.\n(§1) MAO-A and MAO-B enzymatic activity was assayed in 96-well-plates using a spectrophotometric assay adapted from the method described by M. Zhou and N. Panchuk-Voloshina (A One-Step Fluorometric Method for the Continuous Measurement of Monoamine Oxidase Activity, Analytical Biochemistry, 253: 169174, 1997). Briefly, membrane aliquots were incubated in 0.1 M potassium phosphate buffer, pH 7.4, for 30 min at 37° C. with or without various concentrations of the compounds. After this period, the enzymatic reaction was started by the addition of the MAO substrate tyramine together with 1 U/ml horse-radish peroxidase (Roche Biochemicals) and 80 μM N-acetyl-3,7,-dihydroxyphenoxazine (Amplex Red, Molecular Probes). The samples were further incubated for 30 min at 37° C. in a final volume of 200 μl and absorbance was then determined at a wavelength of 570 nm using a SpectraMax plate reader (Molecular Devices). Background (non-specific) absorbance was determined in the presence of 10 μM clorgyline for MAO-A or 10 μM L-deprenyl for MAO-B.\nIC50 values, that is, the concentration of a test compound according to the invention required to inhibit the MAO-B enzyme activity by 50%, were determined from inhibition curves obtained using nine inhibitor concentrations in duplicate, by fitting data to a four parameter logistic equation using a computer program."}, "human MAO-A": {"biological_target": "T2, human MAO-A (Homo sapiens, UniProt P21397)", "T2 construct": "expressed in transfected cells; host or cells: EBNA cells (transient transfection); cell membranes used", "T2 sequence (P21397 whole entry)": "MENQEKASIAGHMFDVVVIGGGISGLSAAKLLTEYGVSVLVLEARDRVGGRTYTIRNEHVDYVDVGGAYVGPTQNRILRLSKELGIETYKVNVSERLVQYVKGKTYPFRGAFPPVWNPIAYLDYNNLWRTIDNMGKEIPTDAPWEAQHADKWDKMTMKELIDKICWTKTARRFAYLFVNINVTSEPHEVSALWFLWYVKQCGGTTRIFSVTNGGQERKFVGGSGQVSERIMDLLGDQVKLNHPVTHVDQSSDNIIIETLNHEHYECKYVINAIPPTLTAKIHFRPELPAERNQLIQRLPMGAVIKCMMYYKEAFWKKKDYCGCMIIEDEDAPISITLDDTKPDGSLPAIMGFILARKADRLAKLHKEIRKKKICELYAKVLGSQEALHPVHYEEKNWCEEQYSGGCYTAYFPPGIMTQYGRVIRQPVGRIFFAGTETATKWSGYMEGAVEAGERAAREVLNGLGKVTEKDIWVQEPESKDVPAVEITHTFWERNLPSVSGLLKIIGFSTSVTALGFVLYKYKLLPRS", "experiment": "MAO-A enzymatic activity, spectrophotometric assay (tyramine, Amplex Red) on membranes of transfected EBNA cells", "format": "biochemical", "protocol": "After transfection, cells were homogenised by means of a Polytron homogenizer in 20 mM Tris HCl buffer, pH 8.0, containing 0.5 mM EGTA and 0.5 mM phenylmethanesulfonyl fluoride. Cell membranes were obtained by centrifugation at 45,000×g and, after two rinsing step with 20 mM Tris HCl buffer, pH 8.0, containing 0.5 mM EGTA, membranes were eventually re-suspended in the above buffer and aliquots stored at −80° C. until use.\nas §1, with “Briefly,” for “MAO-A and MAO-B enzymatic activity was assayed in 96-well-plates using a spectrophotometric assay adapted from the method described by M. Zhou and N. Panchuk-Voloshina (A One-Step Fluorometric Method for the Continuous Measurement of Monoamine Oxidase Activity, Analytical Biochemistry, 253: 169174, 1997). Briefly,”"}, "[1]": {"conditions": "membranes, 30 min preincubation at 37° C., pH 7.4, substrate tyramine, read-out: IC50 MAO-A"}},
  "note": "Where two headings read alike, the source gives them in different places.",
  "data": [
    {"compound": "CC(C(N)=O)N1CCc2cc(OCc3cccc(F)c3)ccc2C1=O", "note": "(racemic) [Example 7, 2-[6-(3-Fluoro-benzyloxy)-1-oxo-3,4-dihydro-1H-isoquinolin-2-yl]-propionamide]", "values": [
      {"measurement": "IC50", "setting": "human MAO-B", "result": 12, "unit": "nM"},
      {"measurement": "IC50", "setting": "human MAO-A; [1]", "result": "> 10000", "unit": "nM"}
    ]},
    {"compound": "O=C1NCCc2cc(OCc3cccc(F)c3)ccc21", "note": "[Example 1, 6-(3-Fluoro-benzyloxy)-3,4-dihydro-2H-isoquinolin-1-one]", "values": [
      {"measurement": "IC50", "setting": "human MAO-B", "result": 104, "unit": "nM"},
      {"measurement": "IC50", "setting": "human MAO-A; [1]", "result": 5240, "unit": "nM"}
    ]},
    {"compound": "NC(=O)CN1CCc2cc(OCc3cccc(F)c3)ccc2C1=O", "note": "[Example 6, 2-[6-(3-Fluoro-benzyloxy)-1-oxo-3,4-dihydro-1H-isoquinolin-2-yl]-acetamide]", "values": [
      {"measurement": "IC50", "setting": "human MAO-B", "result": 8, "unit": "nM"},
      {"measurement": "IC50", "setting": "human MAO-A; [1]", "result": 330, "unit": "nM"}
    ]},
    {"compound": "CC(CO)N1CCc2cc(OCc3cccc(F)c3)ccc2C1=O", "note": "(stereo not shown) [Example 8, 6-(3-Fluoro-benzyloxy)-2-(2-hydroxy-1-methyl-ethyl)-3,4-dihydro-2H-isoquinolin-1-one]", "values": [
      {"measurement": "IC50", "setting": "human MAO-B", "result": 74, "unit": "nM"},
      {"measurement": "IC50", "setting": "human MAO-A; [1]", "result": "> 10000", "unit": "nM"}
    ]},
    {"compound": "N#CCN1CCc2cc(OCc3cccc(F)c3)ccc2C1=O", "note": "[Example 12, [6-(3-Fluoro-benzyloxy)-1-oxo-3,4-dihydro-1H-isoquinolin-2-yl]-acetonitrile]", "values": [
      {"measurement": "IC50", "setting": "human MAO-B", "result": 154, "unit": "nM"}
    ]},
    {"compound": "COCC(C)N1CCc2cc(OCc3cccc(F)c3)ccc2C1=O", "note": "(stereo not shown) [Example 14, 6-(3-Fluoro-benzyloxy)-2-(2-methoxy-1-methyl-ethyl)-3,4-dihydro-2H-isoquinolin-1-one]", "values": [
      {"measurement": "IC50", "setting": "human MAO-B", "result": 63, "unit": "nM"},
      {"measurement": "IC50", "setting": "human MAO-A", "result": 4220, "unit": "nM"}
    ]},
    {"compound": "NC(=O)CCN1CCc2cc(OCc3cccc(F)c3)ccc2C1=O", "note": "[Example 19, 3-[6 (3-Fluoro-benzyloxy)-1-oxo-3,4-dihydro-1H-isoquinolin-2-yl]-propionamide]", "values": [
      {"measurement": "IC50", "setting": "human MAO-B", "result": 392, "unit": "nM"}
    ]},
    {"compound": "C[C@H](C(N)=O)N1CCc2cc(OCc3ccc(F)cc3)ccc2C1=O", "note": "[Example 20, 2-(R)-[6-(4-Fluoro-benzyloxy)-1-oxo-3,4-dihydro-1H-isoquinolin-2-yl]-propionamide]", "values": [
      {"measurement": "IC50", "setting": "human MAO-B", "result": 12, "unit": "nM"},
      {"measurement": "IC50", "setting": "human MAO-A", "result": "> 10000", "unit": "nM"}
    ]},
    {"compound": "C[C@@H](C(N)=O)N1CCc2cc(OCc3ccc(F)cc3)ccc2C1=O", "note": "[Example 21, 2(S)-[6-(4-Fluoro-benzyloxy)-1-oxo-3,4-dihydro-1H-isoquinolin-2-yl]-propionamide]", "values": [
      {"measurement": "IC50", "setting": "human MAO-B", "result": 18, "unit": "nM"},
      {"measurement": "IC50", "setting": "human MAO-A", "result": "> 10000", "unit": "nM"}
    ]},
    {"compound": "NC(=O)[C@H](CO)N1CCc2cc(OCc3ccc(F)cc3)ccc2C1=O", "note": "[Example 22, 2(S)-[6(4-Fluoro-benzyloxy)-1-oxo-3,4-dihydro-1H-isoquinolin-2-yl]-3-hydroxy-propionamide]", "values": [
      {"measurement": "IC50", "setting": "human MAO-B", "result": 20, "unit": "nM"},
      {"measurement": "IC50", "setting": "human MAO-A", "result": "> 10000", "unit": "nM"}
    ]},
    {"compound": "CC(C)(C(N)=O)N1CCc2cc(OCc3ccc(F)cc3)ccc2C1=O", "note": "[Example 30, 2-[6-(4-Fluoro-benzyloxy)-1-oxo-3,4-dihydro-1H-isoquinolin-2-yl]-isobutyramide]", "values": [
      {"measurement": "IC50", "setting": "human MAO-B", "result": 1130, "unit": "nM"}
    ]}
  ]
}
